Results on three compounds are retold here after US20030008903A1, “R-lansoprazole compositions and methods” (Sepracor Inc., priority 1998, published 2003).

Data set [1] relates to hepatic drug metabolizing enzyme systems. The settings on record: compared with omeprazole; cited from earlier work.
For a further data set, the system named is gastric acid secretion. As to conditions: humans; cited from earlier work.
The conditions of data set [2]: humans; cited from earlier work.
In a further data set the test system is serum gastrin. As to conditions: humans, on administration of racemic lansoprazole; cited from earlier work.
Another data set relates to canine parietal cells. As to conditions: isolated canine parietal cells; (+) versus (−) enantiomer; Nagaya et al.; cited from earlier work.
The conditions of data set [3]: human, in vivo. The source says:
Utilizing the optically pure or substantially optically pure isomer of (+) lansoprazole results in enhanced efficacy, diminished adverse effects, and accordingly, an improved therapeutic index. […] It is therefore, more desirable to use the (+) isomer of lansoprazole than to administer the racemic mixture because predictability of an effective and safe dose for an individual patient is greater.

Turning to `Cc1c(OCC(F)(F)F)ccnc1C[S+]([O-])c1nc2ccccc2[nH]1` (racemic) [racemic lansoprazole, 2-[3-methyl-4-(2,2,2-trifluoroethoxy)pyrid-2-yl]methylsulfinyl-benzimidazole], the “effects on hepatic drug metabolizing enzyme systems” value in data set [1] is recorded as “comparable to omeprazole”. In addition, the “duration of the acid inhibitory effect” value in the data set on gastric acid secretion is recorded as “about 24 hours”. In addition, the serum half-life result in data set [2] is reported as “about 1.5 hours”. The “fasting serum gastrin levels” value in the data set on serum gastrin is reported as “significantly elevated”.
Regarding `Cc1c(OCC(F)(F)F)ccnc1C[S@@+]([O-])c1nc2ccccc2[nH]1` (single isomer, unassigned) [R(+) lansoprazole, (+) isomer of 2-[3-methyl-4-(2,2,2-trifluoroethoxy)pyrid-2-yl]methylsulfinyl-benzimidazole], the “effects on acid formation stimulated by db-cAMP” value with canine parietal cells is “almost identical”. Moreover, in data set [3], the half-life result is recorded as “longer half-life”; the “variation in the patient population between good metabolizers and poor metabolizers” value is given as “less variation”.
Consider `Cc1c(OCC(F)(F)F)ccnc1C[S+]([O-])c1nc2ccccc2[nH]1` (stereo not drawn) [S(−) lansoprazole], for which the “effects on acid formation stimulated by db-cAMP” value with canine parietal cells is given as “almost identical”.
